Consider six compounds from patent US20020002171A1, “Materials and methods for killing nematodes and nematode eggs” (priority 2000, published 2002).

One assay deals with Caenorhabditis elegans. The assay can be described thus: C. elegans L1 nematicidal dose response in 96-well plates, 5 day visual score (Example 2; same procedure for Example 7, Table 3). The format is in vivo. Further details: key to 5 Day Visual Score V1 / 5 Day Visual Score V2 / 5 Day Visual Score V3 / 5 Day Visual Score V4 / 5 Day Visual Score V6 / 5 Day Visual Score V5 / Initial HTS Run Visual Score / Follow-up HTS Run Visual Score: Dead: only stiff L1s (no movement); Dead (L4): worms are dead, but at a later larval stage; majority of worms are L1 (based on size) worms move when plate is tapped; majority of worms are L2 (based on size); majority of worms are L3 (based on size); majority of worms are L4 (based on size); AD: majority of worms are adult; #AD: 5 adult worms or less; B!: sterile (0-25 progeny); B: low broodsize (25-100 progeny); ˜B: moderate broodsize (100-250 progeny); <: reduced broodsize (250-500 progeny); OK: no effect (˜1000+ progeny). Particulars: Follow-up HTS run. In a few lines:
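L1 larvae, 20 per well in NGM with 1% E. coli HB101 and antibiotic/antimycotic, exposed to six 3-fold dilutions from 70 μM down to 0.3 μM (1.4% DMSO at top). Held at 20° C; viability scored visually under 100× dissecting microscope on day 5.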
Take `CCCCC(CC)CN(CC(CC)CCCC)c1nc(NCc2ccc(C(F)(F)F)cc2)ns1` (centres unmarked) [compound 307]: the “Follow-up HTS Run % Run” value is reported as 110%, the “Follow-up HTS Run Visual Score” value is recorded as “B! (sterile (0-25 progeny))” and the “Follow-up HTS Run mOD” value amounted to 177 mOD.
Take `CCCCN(CC)c1nc(NCc2ccc(C(F)(F)F)cc2)ns1` [compound 308]: the “Follow-up HTS Run % Run” value is 130% and the “Follow-up HTS Run mOD” value is 210 mOD.
The like results for `CCCCN(Cc1ccccc1)c1nc(NCc2ccc(C(F)(F)F)cc2)ns1` [compound 309] were, in that order, 119% and 191 mOD.
In the same order, the values of `CCN(Cc1ccccc1)c1nc(NCc2ccc(C(F)(F)F)cc2)ns1` [compound 310] are 116% and 187 mOD.
As for `CC(C)CN(CC(C)C)c1nc(NCc2ccc(C(F)(F)F)cc2)ns1` [compound 311], the “Follow-up HTS Run % Run” value is reported as 109%, the “Follow-up HTS Run Visual Score” value is recorded as “B! (sterile (0-25 progeny))” and the “Follow-up HTS Run mOD” value came to 176 mOD.
For the compound `C=CCN(CC=C)c1nc(NCc2ccc(C(F)(F)F)cc2)ns1` [compound 312], the “Follow-up HTS Run % Run” value was 115% and the “Follow-up HTS Run mOD” value stood at 185 mOD.

Staying with this assay, now noted: Initial HTS run.
In the case of `CCCCC(CC)CN(CC(CC)CCCC)c1nc(NCc2ccc(C(F)(F)F)cc2)ns1` (centres unmarked) [compound 307], the “Initial HTS Run % Run” value was found to be 100%, the “Initial HTS Run Visual Score” value is on record as “L4/AD/B” and the “Initial HTS Run mOD” value is listed as 110 mOD.
For the compound `CCCCN(CC)c1nc(NCc2ccc(C(F)(F)F)cc2)ns1` [compound 308], the “Initial HTS Run % Run” value is recorded as 112% and the “Initial HTS Run mOD” value was found to be 123 mOD.
For the compound `CCCCN(Cc1ccccc1)c1nc(NCc2ccc(C(F)(F)F)cc2)ns1` [compound 309], the “Initial HTS Run % Run” value came to 106%, the “Initial HTS Run Visual Score” value was “L4/AD/B!” and the “Initial HTS Run mOD” value came out at 117 mOD.
As to `CCN(Cc1ccccc1)c1nc(NCc2ccc(C(F)(F)F)cc2)ns1` [compound 310], the “Initial HTS Run % Run” value came out at 102% and the “Initial HTS Run mOD” value is on record as 112 mOD.
Consider `CC(C)CN(CC(C)C)c1nc(NCc2ccc(C(F)(F)F)cc2)ns1` [compound 311], for which the “Initial HTS Run % Run” value was 98%, the “Initial HTS Run Visual Score” value is “L4/AD/B!” and the “Initial HTS Run mOD” value was determined as 108 mOD.
`C=CCN(CC=C)c1nc(NCc2ccc(C(F)(F)F)cc2)ns1` [compound 312]: the “Initial HTS Run % Run” value came out at 104% and the “Initial HTS Run mOD” value is reported as 114 mOD.

Staying with this assay, now noted: dose response, dilution V1, 5 day.
For `CCN(Cc1ccccc1)c1nc(NCc2ccc(C(F)(F)F)cc2)ns1` [compound 310], the “5 Day Visual Score V1” value was “Dead”.
Turning to `CC(C)CN(CC(C)C)c1nc(NCc2ccc(C(F)(F)F)cc2)ns1` [compound 311], the “5 Day Visual Score V1” value was “L1”.
Same read-out and setting: as for `C=CCN(CC=C)c1nc(NCc2ccc(C(F)(F)F)cc2)ns1` [compound 312], the entry is “L1”.

The same assay, now with this note: dose response, dilution V1, day 5.
As to `CCCCC(CC)CN(CC(CC)CCCC)c1nc(NCc2ccc(C(F)(F)F)cc2)ns1` (centres unmarked) [compound 307], the “5 Day Visual Score V1” value is on record as “Dead”.
Turning to `CCCCN(CC)c1nc(NCc2ccc(C(F)(F)F)cc2)ns1` [compound 308], the “5 Day Visual Score V1” value is given as “L1”.
Still for that read-out and setting: as for `CCCCN(Cc1ccccc1)c1nc(NCc2ccc(C(F)(F)F)cc2)ns1` [compound 309], the entry is “L1”.

Still in this assay, the particulars now being: dose response, dilution V2, 5 day.
Regarding `CCN(Cc1ccccc1)c1nc(NCc2ccc(C(F)(F)F)cc2)ns1` [compound 310], the “5 Day Visual Score V2” value is listed as “B (low broodsize (25-100 progeny))”.
Regarding `CC(C)CN(CC(C)C)c1nc(NCc2ccc(C(F)(F)F)cc2)ns1` [compound 311], the “5 Day Visual Score V2” value was “< (reduced broodsize (250-500 progeny))”.

Staying with this assay, now noted: dose response, dilution V2, day 5.
With `CCCCN(Cc1ccccc1)c1nc(NCc2ccc(C(F)(F)F)cc2)ns1` [compound 309], the “5 Day Visual Score V2” value was “B (low broodsize (25-100 progeny))”.

The assay is the same for the next values; noted with them: dose response, dilution V3, 5 day.
`CCN(Cc1ccccc1)c1nc(NCc2ccc(C(F)(F)F)cc2)ns1` [compound 310]: the “5 Day Visual Score V3” value is given as “˜B (moderate broodsize (100-250 progeny))”.
Same read-out and setting: as for `CC(C)CN(CC(C)C)c1nc(NCc2ccc(C(F)(F)F)cc2)ns1` [compound 311], the entry is “OK (no effect (˜1000+ progeny))”; as for `C=CCN(CC=C)c1nc(NCc2ccc(C(F)(F)F)cc2)ns1` [compound 312], “˜B (moderate broodsize (100-250 progeny))”.

The assay is the same for the next values; noted with them: dose response, dilution V3, day 5.
Consider `CCCCC(CC)CN(CC(CC)CCCC)c1nc(NCc2ccc(C(F)(F)F)cc2)ns1` (centres unmarked) [compound 307], for which the “5 Day Visual Score V3” value is recorded as “OK (no effect (˜1000+ progeny))”.
On the same count and under the same terms, as for `CCCCN(CC)c1nc(NCc2ccc(C(F)(F)F)cc2)ns1` [compound 308], the entry is “#AD/˜B”.
The same measure, in the same setting: as for `CCCCN(Cc1ccccc1)c1nc(NCc2ccc(C(F)(F)F)cc2)ns1` [compound 309], the entry is “OK (no effect (˜1000+ progeny))”.

The same assay, now with this note: dose response, dilution V4, 5 day.
In the case of `CCN(Cc1ccccc1)c1nc(NCc2ccc(C(F)(F)F)cc2)ns1` [compound 310], the “5 Day Visual Score V4” value is listed as “#AD/˜B”.
Same read-out and setting: as for `CC(C)CN(CC(C)C)c1nc(NCc2ccc(C(F)(F)F)cc2)ns1` [compound 311], the entry is “OK (no effect (˜1000+ progeny))”; as for `C=CCN(CC=C)c1nc(NCc2ccc(C(F)(F)F)cc2)ns1` [compound 312], “OK (no effect (˜1000+ progeny))”.

Staying with this assay, now noted: dose response, dilution V4, day 5.
Regarding `CCCCC(CC)CN(CC(CC)CCCC)c1nc(NCc2ccc(C(F)(F)F)cc2)ns1` (centres unmarked) [compound 307], the “5 Day Visual Score V4” value is “OK (no effect (˜1000+ progeny))”.
On the same count and under the same terms, as for `CCCCN(CC)c1nc(NCc2ccc(C(F)(F)F)cc2)ns1` [compound 308], the entry is “OK (no effect (˜1000+ progeny))”.
For `CCCCN(Cc1ccccc1)c1nc(NCc2ccc(C(F)(F)F)cc2)ns1` [compound 309], the “5 Day Visual Score V4” value is given as “OK (no effect (˜1000+ progeny))”.

The same assay, now with this note: dose response, dilution V5, 5 day.
Take `CCN(Cc1ccccc1)c1nc(NCc2ccc(C(F)(F)F)cc2)ns1` [compound 310]: the “5 Day Visual Score V5” value is given as “OK (no effect (˜1000+ progeny))”.
Same read-out and setting: as for `CC(C)CN(CC(C)C)c1nc(NCc2ccc(C(F)(F)F)cc2)ns1` [compound 311], the entry is “OK (no effect (˜1000+ progeny))”; as for `C=CCN(CC=C)c1nc(NCc2ccc(C(F)(F)F)cc2)ns1` [compound 312], “OK (no effect (˜1000+ progeny))”.

Staying with this assay, now noted: dose response, dilution V5, day 5.
For `CCCCC(CC)CN(CC(CC)CCCC)c1nc(NCc2ccc(C(F)(F)F)cc2)ns1` (centres unmarked) [compound 307], the “5 Day Visual Score V5” value was “OK (no effect (˜1000+ progeny))”.
Take `CCCCN(CC)c1nc(NCc2ccc(C(F)(F)F)cc2)ns1` [compound 308]: the “5 Day Visual Score V5” value is “OK (no effect (˜1000+ progeny))”.
Consider `CCCCN(Cc1ccccc1)c1nc(NCc2ccc(C(F)(F)F)cc2)ns1` [compound 309], for which the “5 Day Visual Score V5” value is “OK (no effect (˜1000+ progeny))”.

Staying with this assay, now noted: dose response, dilution V6, 5 day.
On to `CCN(Cc1ccccc1)c1nc(NCc2ccc(C(F)(F)F)cc2)ns1` [compound 310], for which the “5 Day Visual Score V6” value was “OK (no effect (˜1000+ progeny))”.
With `CC(C)CN(CC(C)C)c1nc(NCc2ccc(C(F)(F)F)cc2)ns1` [compound 311], the “5 Day Visual Score V6” value is given as “OK (no effect (˜1000+ progeny))”.
Still for that read-out and setting: as for `C=CCN(CC=C)c1nc(NCc2ccc(C(F)(F)F)cc2)ns1` [compound 312], the entry is “OK (no effect (˜1000+ progeny))”.

Staying with this assay, now noted: dose response, dilution V6, day 5.
As for `CCCCC(CC)CN(CC(CC)CCCC)c1nc(NCc2ccc(C(F)(F)F)cc2)ns1` (centres unmarked) [compound 307], the “5 Day Visual Score V6” value was “OK (no effect (˜1000+ progeny))”.
On the same count and under the same terms, as for `CCCCN(CC)c1nc(NCc2ccc(C(F)(F)F)cc2)ns1` [compound 308], the entry is “OK (no effect (˜1000+ progeny))”.
Still for that read-out and setting: as for `CCCCN(Cc1ccccc1)c1nc(NCc2ccc(C(F)(F)F)cc2)ns1` [compound 309], the entry is “OK (no effect (˜1000+ progeny))”.
